# Assay results from patent publication US20040242545A1, “Remedy for glaucoma comprising as the active ingredient compound having p13 kinase inhibitory effect” (Santen Phamaceutical Co., Ltd., priority 2001, published 2004).
# Assays:
# Assay type in all cases: in vivo
# [1] = system: intraocular pressure; assay: Intraocular pressure measurement after administration into rabbit anterior chamber; conditions: for Difference of intraocular pressure, 2 hours after administration / Difference of intraocular pressure, 4 hours after administration / Difference of intraocular pressure, 6 hours after administration: vs just before administration; for Difference of intraocular pressure, 2 hours before administration: pre-dose value vs just before administration; for Difference of intraocular pressure, just before administration: reference time point; for Maximum breadth of the intraocular pressure reduction: on 6 hours after administration
# Experimental: In order to examine the influence of the compound having a PI3 kinase blocking action upon the intraocular pressure reduction, measurement of intraocular pressure was conducted using an applanation tonometer or a pneumatic applanation tonometer. LY294002 and wortmannin were provided as test compounds. The former compound was dissolved in methanol to give the concentration of 10^-1 M, and thereto was added 2-hydroxypropyl-β-cyclodextrin as a solubilizer. This solution was diluted in physiological saline to give a LY294002 solution having the concentration of 10^-3 M. The amount of used 2-hydroxypropyl-β-cyclodextrin was determined to make the final concentration thereof to be 4×10^-3 M. Wortmannin was dissolved in dimethylsulfoxide to give the concentration of 10^-1 M for use in the test of administration into anterior chamber, and the obtained solution was diluted in physiological saline to give solutions having the concentration of 10^-4 M and 10^-5 M. Furthermore, dissolution of the compound was conducted in dimethylsulfoxide to give the concentration of 10^-1 M for use in the instillation test, and the obtained solution was diluted in physiological saline to give a 0.04284% (10^-3 M) solution in a suspension state. Rabbit intraocular pressure measurement: An electric current source of a tonometer (pneutonometer model 30 classic) was turned on, and calibration was conducted. […] injection needle was attached to a microsyringe, and a test compound solution or a vehicle was aspirated therein. A rabbit positioner made of aluminum for use in administration into anterior chamber was placed on a table made of aluminum. Further, a rabbit positioner made of wood for use in measurement of intraocular pressure was separately placed on the table made of aluminum. Administration into rabbit anterior chamber: A rabbit was placed on a rabbit positioner made of aluminum for use in administration into anterior chamber, and 0.4% oxybuprocaine hydrochloride was instilled to both eyes with one drop. After fixing an eye lid retractor, the bulbar conjunctiva was held with tweezers, and the needle point was passed from corneallimbus into corneal stroma in the […] direction with the depth of about 2 to 3 mm. Thereafter, the needlepoint was pierced into the anterior chamber, where the test compound solution was infused in an amount of 20 μL. […] Following the completion of the administration operation, the rabbit was brought back to the cage. The rabbit was brought out from the cage on two hours before the administration, just before the administration, and on 2, 4 and 6 hours after the administration, and was placed on the positioner made of wood. Oxybuprocaine hydrochloride at the concentration of 0.4% was instilled to both eyes, and intraocular pressure was measured after fixing the eye lid retractor. The vehicle was administered in a similar manner. Using the intraocular pressure just before the administration as a reference, results are shown by difference (mmHg) between the intraocular pressure of the reference and the intraocular pressure at each time point of the measurement. As obvious from Table 1, the intraocular pressure reduction was observed after the administration of LY294002. Maximum breadth of the intraocular pressure reduction (maximum value of the difference between values of the group administered with the vehicle and the group administered with the test compound) was observed on 6 hours after the administration of 10^-3 M LY294002, with the value of 3.7 mmHg.
# [2] = system: intraocular pressure; assay: Intraocular pressure measurement after instillation to monkey
# Experimental: (§1) In order to examine the influence of the compound having a PI3 kinase blocking action upon the intraocular pressure reduction, measurement of intraocular pressure was conducted using an applanation tonometer or a pneumatic applanation tonometer. Wortmannin was dissolved in dimethylsulfoxide to give the concentration of 10^−1 M for use in the test of administration into anterior chamber, and the obtained solution was diluted in physiological saline to give solutions having the concentration of 10^−4 M and 10^−5 M. Furthermore, dissolution of the compound was conducted in dimethylsulfoxide to give the concentration of 10^−1 M for use in the instillation test, and the obtained solution was diluted in physiological saline to give a 0.04284% (10^−3 M) solution in a suspension state. Monkey intraocular pressure measurement: Measurement of intraocular pressure was conducted using a pneumatic applanation tonometer (Alcon Japan. Ltd.). Test of instillation to monkey: The test compound solution in an amount of 20 μL was instilled to the eye to be administered. The measurement time of the intraocular pressure was on one hour before the administration, just before the administration, and on 2, 4 and 6 hours after the administration. Using the intraocular pressure just before the administration as a reference, results are shown by difference (mmHg) between the intraocular pressure of the reference and the intraocular pressure at each time point of the measurement. As obvious from Table 1, the intraocular pressure reduction was observed after the administration of LY294002. Maximum breadth of the intraocular pressure reduction (maximum value of the difference between values of the group administered with the vehicle and the group administered with the test compound) was observed on 6 hours after the administration of 10^−3 M LY294002, with the value of 3.7 mmHg.
# [3] = system: intraocular pressure; assay: Intraocular pressure measurement after administration into monkey anterior chamber
# Experimental: as §1, with “Ltd.). Administration into monkey anterior chamber:” for “Ltd.). Test of instillation to monkey:”, “The administration was carried out” for “The test compound solution”, “in accordance with the process for administering” for “in an amount of 20 μL was instilled”, “the rabbit.” for “the eye to be administered.”, “The dosage amount was 10 μL, and the” for “The”
# [4] = 10^−3 M LY294002, 20 μL, mean of 6
# [5] = 10^−4 M wortmannin, 20 μL, mean of 4
# [6] = 10^−5 M wortmannin, 20 μL, mean of 4
# [7] = instillation, 0.04284% (10^−3 M) wortmannin suspension, 20 μL, vs just before administration, mean of 5
# [8] = 10^−4 M wortmannin, 10 μL, vs just before administration
smiles,measurement,setting,value
"O=c1cc(N2CCOCC2)oc2c(-c3ccccc3)cccc12 [LY294002, 2-(4-morpholinyl)-8-phenyl-4H-1-benzopyran-4-one]","Difference of intraocular pressure, 2 hours after administration",[1]; [4],−3.2 mmHg
same,"Difference of intraocular pressure, 4 hours after administration",[1]; [4],−2.7 mmHg
same,"Difference of intraocular pressure, 6 hours after administration",[1]; [4],−2.1 mmHg
same,Maximum breadth of the intraocular pressure reduction (maximum difference between vehicle group and test compound group),"[1]; 10^−3 M LY294002, on 6 hours after administration",3.7 mmHg
same,"Difference of intraocular pressure, 2 hours before administration","[1]; 10^−3 M LY294002 group, 20 μL, mean of 6",1.9 mmHg
same,"Difference of intraocular pressure, just before administration","[1]; 10^−3 M LY294002 group, mean of 6",0.0 mmHg
COC[C@H]1OC(=O)c2coc3c2[C@@]1(C)C1=C(C3=O)[C@@H]2CCC(=O)[C@@]2(C)C[C@H]1OC(C)=O [wortmannin],"Difference of intraocular pressure, 2 hours before administration","[1]; 10^−4 M wortmannin group, 20 μL, mean of 4",2.2 mmHg
same,"Difference of intraocular pressure, just before administration","[1]; 10^−4 M wortmannin group, mean of 4",0.0 mmHg
same,"Difference of intraocular pressure, 2 hours after administration",[1]; [5],−1.2 mmHg
same,"Difference of intraocular pressure, 4 hours after administration",[1]; [5],−2.8 mmHg
same,"Difference of intraocular pressure, 6 hours after administration",[1]; [5],−3.0 mmHg
same,Maximum breadth of the intraocular pressure reduction,[1]; 10^−4 M wortmannin,6.9 mm Hg
same,"Difference of intraocular pressure, 2 hours before administration","[1]; 10^−5 M wortmannin group, 20 μL, mean of 4",1.2 mmHg
same,"Difference of intraocular pressure, just before administration","[1]; 10^−5 M wortmannin group, mean of 4",0.0 mmHg
same,"Difference of intraocular pressure, 2 hours after administration",[1]; [6],−1.5 mmHg
same,"Difference of intraocular pressure, 4 hours after administration",[1]; [6],−1.0 mmHg
same,"Difference of intraocular pressure, 6 hours after administration",[1]; [6],0.6 mmHg
same,Maximum breadth of the intraocular pressure reduction,[1]; 10^−5 M wortmannin,3.3 mmHg
same,Maximum breadth of the intraocular pressure reduction,"[2]; instillation of wortmannin (0.04284%), on 4 hours after administration",2.8 mmHg
same,"Difference of intraocular pressure, 1 hours before administration","[2]; instillation, 0.04284% (10^−3 M) wortmannin group, 20 μL, pre-dose value vs just before administration, mean of 5",1.1 mmHg
same,"Difference of intraocular pressure, 2 hours after administration",[2]; [7],−2.6 mmHg
same,"Difference of intraocular pressure, 4 hours after administration",[2]; [7],−3.4 mmHg
same,"Difference of intraocular pressure, 6 hours after administration",[2]; [7],−1.5 mmHg
same,"Difference of intraocular pressure, just before administration","[2]; instillation, 0.04284% wortmannin group, reference time point, mean of 5",0.0 mmHg
same,"Difference of intraocular pressure, 1 hours before administration","[3]; 10^−4 M wortmannin group, 10 μL, pre-dose value vs just before administration",0.7 mmHg
same,"Difference of intraocular pressure, just before administration","[3]; 10^−4 M wortmannin group, reference time point",0.0 mmHg
same,"Difference of intraocular pressure, 2 hours after administration",[3]; [8],−4.8 mmHg
same,"Difference of intraocular pressure, 4 hours after administration",[3]; [8],−4.3 mmHg
same,"Difference of intraocular pressure, 6 hours after administration",[3]; [8],−2.1 mmHg
same,Maximum intraocular pressure reduction,"[3]; wortmannin (10^−4 M), on 2 hours after administration",4.5 mmHg
